In US10464946B2, “Crystalline forms of thienopyrimidine compound” (HANMI PHARM. CO., LTD., priority 2015, dated 2019):

Experiments:
[1] = Dynamic vapor sorption (DVS) hygroscopicity; type: physicochemical; conditions: relative humidity of 10% to 90%; for stability from the hygroscopic aspect: expected from the DVS result
Experimental: Dynamic vapor sorption (DVS) analysis was performed in a DVS advantage (Surface measurement system, United Kingdom) analyzer at 25° C. with a relative humidity of 0% to 90%. A sample in an amount of 10 mg was placed into a wire-mesh vapor sorption balance pan and then attached to a DVS advantage dynamic vapor sorption balance via surface measurement systems. Until a stable weight was achieved (99.5% completion of steps), the sample was applied to a ramping profile with a relative humidity of 10% to 90% with a 10% increase of the sample while maintaining the sample in each step. Upon completion of the sorption cycle, the sample was dried using the same process while maintaining a relative humidity of […]. The changes in the sample weight during the adsorption/desorption cycle (repeated 3 times) were recorded and the hygroscopicity of the sample was measured.

[2] = Storage stability under long-term and accelerated conditions; type: physicochemical; conditions: for stability under a long-term storage condition: temperature of 25° C. and relative humidity of 60%; for stability under an accelerated condition: temperature of 40° C. and relative humidity of 75%
Experimental: High performance liquid chromatography (HPLC) analysis was performed for the purposes of analyzing purity and contents such as a stability test, etc., using an Agilent 1100/1200 series HPLC Systems (Agilent, USA) analyzer, and the conditions used for HPLC were as follows.

Q: What does the source list for `C=CC(=O)Nc1cccc(Oc2nc(Nc3ccc(N4CCN(C)CC4)cc3)nc3ccsc23)c1` [Example 3, N-(3-(2-(4-(4-methylpiperazin-1-yl)phenylamino)thieno[3,2-d]pyrimidin-4-yloxy)phenyl)acrylamide]?
A: stability from the hygroscopic aspect [1]: very stable; stability under a long-term storage condition [2]: very stable; stability under an accelerated condition [2]: very stable

Q: For `C=CC(=O)Nc1cccc(Oc2nc(Nc3ccc(N4CCN(C)CC4)cc3)nc3ccsc23)c1` [Example 4, N-(3-(2-(4-(4-methylpiperazin-1-yl)phenylamino)thieno[3,2-d]pyrimidin-4-yloxy)phenyl)acrylamide], which “stability from the hygroscopic aspect” value [1] is on record?
A: very stable

Q: And the “stability under a long-term storage condition” value [2]?
A: very stable

Q: What about the “stability under an accelerated condition” value [2] of the same molecule?
A: very stable

Q: With `C=CC(=O)Nc1cccc(Oc2nc(Nc3ccc(N4CCN(C)CC4)cc3)nc3ccsc23)c1` [Comparative Example 1, N-(3-(2-(4-(4-methylpiperazin-1-yl)phenylamino)thieno[3,2-d]pyrimidin-4-yloxy)phenyl)acrylamide, reference compound] as the molecule, how does the “stability from the hygroscopic aspect” value [1] read?
A: unstable

Q: Which “stability from the hygroscopic aspect” value [1] does the source give for `C=CC(=O)Nc1cccc(Oc2nc(Nc3ccc(N4CCN(C)CC4)cc3)nc3ccsc23)c1` [Example 1, N-(3-(2-(4-(4-methylpiperazin-1-yl)phenylamino)thieno[3,2-d]pyrimidin-4-yloxy)phenyl)acrylamide] here?
A: stable

Q: What about the “water content / hygroscopic level in the DVS” value ([1]; 25° C.) of the same molecule?
A: about 1.5%
